Reference: PubChem BioAssay (NCI)
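Grown in 96-well plates, cells were treated for 48 hours with each compound at five concentrations. Insufficient inhibition: endpoint recorded as highest concentration tested. GI50 marks 50% less growth. TGI denotes the concentration required for complete inhibition of growth.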

Columns and labels:
Assay in all cases: NCI tumour cell line growth inhibition, 48 h
[1] = tested on: SK-MEL-2 melanoma
[2] = tested on: MDA-MB-231 breast
[3] = tested on: CAKI-1 renal
[4] = tested on: SK-MEL-5 melanoma
[5] = tested on: COLO 205 colon
[6] = tested on: A498 renal
[7] = tested on: M14 melanoma
[8] = tested on: PC-3 prostate
[9] = tested on: NCI-H226 lung
[10] = tested on: OVCAR-3 ovarian
[11] = tested on: HCT-15 colon
[12] = tested on: OVCAR-4 ovarian
[13] = tested on: OVCAR-5 ovarian
[14] = tested on: LOX IMVI melanoma
[15] = tested on: MDA-MB-435
[16] = tested on: SNB-19 CNS
[17] = tested on: SF-295 CNS
[18] = tested on: SNB-75 CNS
[19] = tested on: BT-549 breast
[20] = tested on: SK-OV-3 ovarian
[21] = tested on: 786-0 renal
[22] = tested on: UO-31 renal
[23] = tested on: U251 CNS
[24] = tested on: T-47D breast
[25] = tested on: ACHN renal
[26] = tested on: SR leukemia
[27] = tested on: MOLT-4 leukemia
[28] = tested on: HT29 colon
[29] = tested on: SN12C renal
[30] = tested on: SK-MEL-28 melanoma
[31] = tested on: IGROV1 ovarian
[32] = tested on: HS 578T breast
[33] = tested on: OVCAR-8 ovarian
[34] = tested on: K-562 leukemia
[35] = tested on: TK-10 renal
[36] = tested on: UACC-62 melanoma
[37] = tested on: HCT-116 colon
[38] = tested on: NCI-H460 lung
[39] = tested on: NCI/ADR-RES ovarian
[40] = tested on: RXF 393 renal
[41] = tested on: MCF7 breast
[42] = tested on: A549 NSCLC
[43] = tested on: RPMI-8226 leukemia
[44] = tested on: HOP-92 NSCLC
[45] = tested on: SW-620 colon
[46] = tested on: SF-539 CNS
[47] = tested on: HOP-62 NSCLC
[48] = tested on: HL-60(TB) leukemia
[49] = tested on: SF-268 CNS
[50] = tested on: KM12 colon
[51] = tested on: UACC-257 melanoma
[52] = tested on: NCI-H522 lung
[53] = tested on: CCRF-CEM leukemia
[54] = tested on: DU-145 prostate
[55] = tested on: MALME-3M melanoma
[56] = tested on: NCI-H23 lung
[57] = tested on: HCC-2998 colon
[58] = tested on: EKVX NSCLC

`Cn1cc(-c2ccc3nnc(Sc4ccc5ncccc5c4)n3n2)cn1` was tested, and the GI50 [1] was 48.4 µM, the TGI [1] was > 100 µM and the GI50 [2] was 24.4 µM. The TGI [2] was 96.9 µM, the GI50 [3] was 40.8 µM and the TGI [3] was > 100 µM. The GI50 [4] was > 74.3 µM, the TGI [4] was > 100 µM and the GI50 [5] was 30.4 µM. For the same compound, the TGI [5] was > 100 µM, the GI50 [6] was > 23 µM and the TGI [6] was > 93.1 µM. For the same compound, the GI50 [7] was > 100 µM, the TGI [7] was > 100 µM and the GI50 [8] was > 92.7 µM. For the same compound, the TGI [8] was > 100 µM, the GI50 [9] was > 59.1 µM and the TGI [9] was > 100 µM. The GI50 [10] was > 91.4 µM, the TGI [10] was > 100 µM and the GI50 [11] was > 100 µM. For the same compound, the TGI [11] was > 100 µM, the GI50 [12] was > 100 µM and the TGI [12] was > 100 µM. For the same compound, the GI50 [13] was 61.9 µM, the TGI [13] was > 100 µM and the GI50 [14] was 57.8 µM. For the same compound, the TGI [14] was > 100 µM, the GI50 [15] was > 100 µM and the TGI [15] was > 100 µM. For the same compound, the GI50 [16] was 47.3 µM, the TGI [16] was > 100 µM and the GI50 [17] was 2.06 µM. For the same compound, the TGI [17] was > 100 µM, the GI50 [18] was 26.1 µM and the TGI [18] was > 100 µM. The GI50 [19] was 48.7 µM, the TGI [19] was > 100 µM and the GI50 [20] was > 73.9 µM. The TGI [20] was > 100 µM, the GI50 [21] was > 100 µM and the TGI [21] was > 100 µM. The GI50 [22] was 61.9 µM, the TGI [22] was > 100 µM and the GI50 [23] was 28.5 µM. For the same compound, the TGI [23] was > 100 µM, the GI50 [24] was 99.3 µM and the TGI [24] was > 100 µM. For the same compound, the GI50 [25] was 54.1 µM, the TGI [25] was > 100 µM and the GI50 [26] was 68.1 µM. For the same compound, the TGI [26] was > 100 µM, the GI50 [27] was > 100 µM and the TGI [27] was > 100 µM. The GI50 [28] was > 100 µM, the TGI [28] was > 100 µM and the GI50 [29] was > 73.9 µM. The TGI [29] was > 100 µM, the GI50 [30] was > 100 µM and the TGI [30] was > 100 µM. For the same compound, the GI50 [31] was > 88.6 µM, the TGI [31] was > 100 µM and the GI50 [32] was 10.4 µM. For the same compound, the TGI [32] was > 72.1 µM, the GI50 [33] was 66.7 µM and the TGI [33] was > 100 µM. For the same compound, the GI50 [34] was 38.4 µM, the TGI [34] was > 100 µM and the GI50 [35] was 40.7 µM. For the same compound, the TGI [35] was > 100 µM, the GI50 [36] was > 100 µM and the TGI [36] was > 100 µM. For the same compound, the GI50 [37] was 53 µM, the TGI [37] was > 100 µM and the GI50 [38] was 79.2 µM. The TGI [38] was > 100 µM, the GI50 [39] was > 100 µM and the TGI [39] was > 100 µM. For the same compound, the GI50 [40] was 26.6 µM, the TGI [40] was > 100 µM and the GI50 [41] was 97.5 µM. For the same compound, the TGI [41] was > 100 µM, the GI50 [42] was > 86 µM and the TGI [42] was > 100 µM. For the same compound, the GI50 [43] was 41.2 µM, the TGI [43] was > 100 µM and the GI50 [44] was 7.07 µM. For the same compound, the TGI [44] was > 71.4 µM, the GI50 [45] was > 100 µM and the TGI [45] was > 100 µM. For the same compound, the GI50 [46] was > 93.4 µM, the TGI [46] was > 100 µM and the GI50 [47] was 30.9 µM. The TGI [47] was > 100 µM, the GI50 [48] was > 100 µM and the TGI [48] was > 100 µM. For the same compound, the GI50 [49] was 60.2 µM, the TGI [49] was > 100 µM and the GI50 [50] was > 100 µM. For the same compound, the TGI [50] was > 100 µM, the GI50 [51] was > 100 µM and the TGI [51] was > 100 µM. The GI50 [52] was > 100 µM, the TGI [52] was > 100 µM and the GI50 [53] was 51.6 µM. For the same compound, the TGI [53] was > 100 µM, the GI50 [54] was 73.3 µM and the TGI [54] was > 100 µM. For the same compound, the GI50 [55] was > 100 µM, the TGI [55] was > 100 µM and the GI50 [56] was 56 µM. The TGI [56] was > 100 µM, the GI50 [57] was > 100 µM and the TGI [57] was > 100 µM. The GI50 [58] was 97 µM and the TGI [58] was > 100 µM.

With `Cc1nc2ccc(NC(=O)CCNC(=O)CCCc3ccc(CC(C(=O)O)C(=O)O)cc3)cc2s1` the GI50 [1] was > 100 µM, the TGI [1] was > 100 µM and the GI50 [2] was > 100 µM. For the same compound, the TGI [2] was > 100 µM, the GI50 [3] was > 100 µM and the TGI [3] was > 100 µM. The GI50 [4] was > 100 µM, the TGI [4] was > 100 µM and the GI50 [5] was > 100 µM. The TGI [5] was > 100 µM, the GI50 [6] was > 100 µM and the TGI [6] was > 100 µM. For the same compound, the GI50 [7] was > 100 µM, the TGI [7] was > 100 µM and the GI50 [8] was > 100 µM. The TGI [8] was > 100 µM, the GI50 [9] was > 100 µM and the TGI [9] was > 100 µM. For the same compound, the GI50 [10] was > 100 µM, the TGI [10] was > 100 µM and the GI50 [11] was > 100 µM. For the same compound, the TGI [11] was > 100 µM, the GI50 [12] was > 100 µM and the TGI [12] was > 100 µM. For the same compound, the GI50 [13] was > 100 µM, the TGI [13] was > 100 µM and the GI50 [14] was > 100 µM. For the same compound, the TGI [14] was > 100 µM, the GI50 [15] was > 100 µM and the TGI [15] was > 100 µM. For the same compound, the GI50 [16] was > 100 µM, the TGI [16] was > 100 µM and the GI50 [17] was > 100 µM. For the same compound, the TGI [17] was > 100 µM, the GI50 [18] was > 100 µM and the TGI [18] was > 100 µM. For the same compound, the GI50 [19] was > 100 µM, the TGI [19] was > 100 µM and the GI50 [20] was > 100 µM. The TGI [20] was > 100 µM, the GI50 [21] was > 100 µM and the TGI [21] was > 100 µM. For the same compound, the GI50 [22] was > 100 µM, the TGI [22] was > 100 µM and the GI50 [23] was > 100 µM. For the same compound, the TGI [23] was > 100 µM, the GI50 [24] was > 100 µM and the TGI [24] was > 100 µM. For the same compound, the GI50 [25] was > 100 µM, the TGI [25] was > 100 µM and the GI50 [26] was > 100 µM. For the same compound, the TGI [26] was > 100 µM, the GI50 [27] was > 100 µM and the TGI [27] was > 100 µM. For the same compound, the GI50 [28] was > 100 µM, the TGI [28] was > 100 µM and the GI50 [29] was > 100 µM. The TGI [29] was > 100 µM, the GI50 [30] was > 100 µM and the TGI [30] was > 100 µM. The GI50 [31] was > 100 µM, the TGI [31] was > 100 µM and the GI50 [32] was > 100 µM. For the same compound, the TGI [32] was > 100 µM, the GI50 [33] was > 100 µM and the TGI [33] was > 100 µM. The GI50 [34] was > 100 µM, the TGI [34] was > 100 µM and the GI50 [35] was > 100 µM. The TGI [35] was > 100 µM, the GI50 [36] was > 100 µM and the TGI [36] was > 100 µM. For the same compound, the GI50 [37] was > 100 µM, the TGI [37] was > 100 µM and the GI50 [38] was > 100 µM. For the same compound, the TGI [38] was > 100 µM, the GI50 [39] was > 100 µM and the TGI [39] was > 100 µM. For the same compound, the GI50 [40] was > 100 µM, the TGI [40] was > 100 µM and the GI50 [41] was > 100 µM. For the same compound, the TGI [41] was > 100 µM, the GI50 [42] was > 100 µM and the TGI [42] was > 100 µM. For the same compound, the GI50 [43] was > 100 µM, the TGI [43] was > 100 µM and the GI50 [44] was > 100 µM. For the same compound, the TGI [44] was > 100 µM, the GI50 [45] was > 100 µM and the TGI [45] was > 100 µM. The GI50 [46] was > 100 µM, the TGI [46] was > 100 µM and the GI50 [47] was > 100 µM. The TGI [47] was > 100 µM, the GI50 [48] was > 100 µM and the TGI [48] was > 100 µM. For the same compound, the GI50 [49] was > 100 µM, the TGI [49] was > 100 µM and the GI50 [50] was > 100 µM. For the same compound, the TGI [50] was > 100 µM, the GI50 [51] was > 100 µM and the TGI [51] was > 100 µM. For the same compound, the GI50 [52] was > 100 µM, the TGI [52] was > 100 µM and the GI50 [53] was > 100 µM. For the same compound, the TGI [53] was > 100 µM, the GI50 [54] was > 100 µM and the TGI [54] was > 100 µM. For the same compound, the GI50 [55] was > 100 µM, the TGI [55] was > 100 µM and the GI50 [56] was > 100 µM. For the same compound, the TGI [56] was > 100 µM, the GI50 [57] was > 100 µM and the TGI [57] was > 100 µM. The GI50 [58] was > 100 µM and the TGI [58] was > 100 µM.
